The structures appear in SMILES notation.

The target of the assay is T1, CHEK1 (CHK1) (Homo sapiens, UniProt O14757).
T1 construct: purchased Thermo Fisher Scientific (Life Technologies) SelectScreen
Kind of assay: SelectScreen Z'LYTE. Format: biochemical. An outline of the steps:
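SelectScreen broad panel; activity (Z'LYTE, Adapta) plus binding formats. ATP: Km app for CSF1R Z'LYTE; 10 for CAMK1 Adapta. Readout = % per kinase.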

T1 sequence (O14757 whole entry): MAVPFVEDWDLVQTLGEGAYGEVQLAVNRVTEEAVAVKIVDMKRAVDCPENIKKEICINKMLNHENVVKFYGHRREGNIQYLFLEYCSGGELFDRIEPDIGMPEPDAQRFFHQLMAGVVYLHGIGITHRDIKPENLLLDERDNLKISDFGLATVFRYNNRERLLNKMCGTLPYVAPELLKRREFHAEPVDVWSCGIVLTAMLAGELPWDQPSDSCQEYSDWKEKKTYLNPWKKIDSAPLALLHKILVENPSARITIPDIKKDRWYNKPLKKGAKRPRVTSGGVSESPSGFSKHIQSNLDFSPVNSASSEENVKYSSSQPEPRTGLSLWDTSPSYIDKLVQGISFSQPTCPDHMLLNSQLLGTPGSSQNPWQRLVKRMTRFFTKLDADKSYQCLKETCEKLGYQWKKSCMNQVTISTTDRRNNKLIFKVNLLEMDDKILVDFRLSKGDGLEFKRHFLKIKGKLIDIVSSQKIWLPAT

Turning to `CN(C(=O)CN1CCOCC1)c1ccc2sc3c(-c4cccc5c(=O)cc(N6CC7CCC(C6)O7)oc45)cccc3c2c1` [NU5455], 1 µM produced 9.3% inhibition.

Values taken from PMC6934184, “Selective DNA-PKcs inhibition extends the therapeutic index of localized radiotherapy and chemotherapy” (The Journal of Clinical Investigation, 2019).
